Measurements reported in PubChem BioAssay (NCI).
Several values for one entry are separate records, joined by “and”; a condition that tells them apart may be missing. Equal entries are not always repeated.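 Results reflect a 48-hour exposure of cells in 96-well plates to compound at five concentrations. The concentration for 50% growth inhibition is given as GI50. Definition used: TGI = concentration required for complete inhibition of growth.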

Assays:
Experiment in all cases: DTP human tumour cell line panel, 48 h
[1] = system: 786-0 renal
[2] = system: A498 renal
[3] = system: BT-549 breast
[4] = system: EKVX NSCLC
[5] = system: MDA-MB-231 breast
[6] = system: NCI-H460 lung
[7] = system: SNB-19 CNS
[8] = system: SW-620 colon
[9] = system: TK-10 renal
[10] = system: UACC-62 melanoma

Row | Structure (SMILES) | GI50 [1] | TGI [1] | GI50 [2] | TGI [2] | GI50 [3] | TGI [3] | GI50 [4] | TGI [4] | GI50 [5] | TGI [5] | GI50 [6] | TGI [6] | GI50 [7] | TGI [7] | GI50 [8] | GI50 [9] | TGI [9] | GI50 [10] | TGI [10] | TGI [8]
1 | CC(=O)O[C@@H]1C=CC(=O)C2(CC(=O)O[C@@H]2/C=C(\C)CCC=C(C)C)C1 (stereo partly drawn) | 0.931 µM | 2.26 µM | 1.73 µM | 3.81 µM | 1.15 µM | 3.54 µM | 3.28 µM | 7.87 µM | 0.405 µM | 1.33 µM | 0.378 µM | 2.2 µM | 1.6 µM | 3.58 µM | 0.436 µM | 1.67 µM | 3.71 µM | 1.12 µM | 2.36 µM | 
2 | CCCCC1(N=[N+]=[N-])C(=O)c2cccc3c2N(CCC3)C1=O (stereo not drawn) |  | > 100 µM |  | > 100 µM |  | > 100 µM |  | > 100 µM |  | > 100 µM |  | > 100 µM |  | > 100 µM |  |  | > 100 µM |  | > 100 µM | > 100 µM
3 | CC(=O)OCC1OC(n2cc(F)c(=O)[nH]c2=O)C(OC(C)=O)C1OC(C)=O (stereo not drawn) |  | > 94.5 µM |  | > 100 µM |  | > 100 µM |  | > 100 µM |  | > 56.2 µM |  | > 100 µM |  | > 100 µM |  |  | > 100 µM |  | > 100 µM | > 100 µM
4 | CCc1nc(N)nc(N)c1-c1ccc(Cl)cc1 | 5.89 µM | > 100 µM | 24.1 µM | > 100 µM and 42.4 µM |  | > 100 µM | 5.7 µM | > 100 µM | 34.2 µM | > 100 µM | 1.73 µM | > 100 µM | 7.75 µM | > 100 µM | 3.99 µM | 88.3 µM | > 100 µM | 3.93 µM | > 100 µM | > 100 µM
5 | COc1ccc(C(=O)c2cc3c(N)c(C(=O)Nc4cccc(Cl)c4)sc3nc2C)cc1 | 2.67 µM | > 33.3 µM | 0.821 µM | > 33.3 µM | 7.69 µM | > 33.3 µM | 2.06 µM | > 33.3 µM | 2.55 µM | > 33.3 µM | 1.12 µM | > 33.3 µM | 1.46 µM | > 33.3 µM | 1.67 µM | > 33.3 µM | > 33.3 µM | 1.12 µM | > 33.3 µM | > 33.3 µM
6 | COc1ccc(NC(=O)c2ccc(NC3=C(Cl)C(=O)N(Cc4ccccc4)C3=O)cc2)cc1 | 2.89 µM | 7.97 µM | 16.8 µM | 34.8 µM | 8.27 µM | 26.2 µM | 32.1 µM | > 100 µM | 11.9 µM | 26.2 µM | 53.1 µM | > 100 µM | 18 µM | 40.4 µM | 4.83 µM | 22.1 µM | 38 µM | 16.3 µM | 36.8 µM | > 100 µM
7 | O=P(O)(O)OC1C(OP(=O)(O)O)C(OP(=O)(O)O)C(OP(=O)(O)O)C(OP(=O)(O)O)C1OP(=O)(O)O (stereo not drawn) | > 2000 µM | > 2000 µM | > 500 µM and 1190 µM | > 2000 µM | > 1690 µM | > 2000 µM | > 100 µM | > 2000 µM | > 2000 µM | > 2000 µM | > 2000 µM | > 2000 µM | > 2000 µM | > 2000 µM | > 2000 µM | > 1360 µM | > 2000 µM | > 2000 µM | > 2000 µM | > 2000 µM
8 | CCc1cc(C(N)=O)ccc1-n1nc(C(C)C)c2c(-n3cnc(-c4cnn(C)c4)c3)ccnc21 | 5.67 µM | > 100 µM | 4.99 µM | > 100 µM | 6.81 µM | > 100 µM | 16.3 µM | > 100 µM | 3.25 µM | > 100 µM | 0.566 µM | > 100 µM | 3.3 µM | > 100 µM | 0.536 µM | 1.23 µM | > 100 µM | 1.18 µM | > 35.4 µM | > 100 µM
9 | COc1ccc(/C=C2/SC(=Nc3c(C)nn(-c4ccccc4)c3N)NC2=O)cc1 | 6.94 µM | 89.4 µM | 1.07 µM | 2.79 µM | 4.94 µM | 22.4 µM | 4.18 µM | 40 µM | 9.5 µM | 69.7 µM | 3.04 µM | 10.7 µM | 7.68 µM | > 100 µM | 3.31 µM | 7.12 µM | 57.3 µM | 3.78 µM | 18.3 µM | 13.9 µM
10 | COc1ccccc1/C=C1\COc2ccc(O)c(O)c2C1=O | 2.2 µM | 6.72 µM | 3.4 µM | 18 µM | 2.48 µM | 7.53 µM | 3 µM | 46.1 µM | 2.24 µM | 10.2 µM | 1.83 µM | 4.09 µM | 2.61 µM | 26.2 µM | 1.48 µM | 3.08 µM | > 100 µM | 1.59 µM | 3.29 µM | 4.2 µM
